Experimental data taken from US4933359A, “4(5)-substituted imidazole derivatives as α2 -adrenergic receptor blockers” (Farmos-Yhtyma Oy, priority 1986, dated 1990).

Experiments:
[1] = target: T1, α2-receptors (mouse vas deferens) (Mus musculus, UniProt Q01338); experiment: α2-antagonism in vitro, isolated electrically stimulated mouse vas deferens (pA2 vs detomidine); assay type: cell-based; details: antagonist given prior to agonist detomidine
T1 construct: isolated, electrically stimulated mouse vas deferens preparation; from tissue; host or cells: mouse vas deferens
T1 sequence (Q01338 1-465): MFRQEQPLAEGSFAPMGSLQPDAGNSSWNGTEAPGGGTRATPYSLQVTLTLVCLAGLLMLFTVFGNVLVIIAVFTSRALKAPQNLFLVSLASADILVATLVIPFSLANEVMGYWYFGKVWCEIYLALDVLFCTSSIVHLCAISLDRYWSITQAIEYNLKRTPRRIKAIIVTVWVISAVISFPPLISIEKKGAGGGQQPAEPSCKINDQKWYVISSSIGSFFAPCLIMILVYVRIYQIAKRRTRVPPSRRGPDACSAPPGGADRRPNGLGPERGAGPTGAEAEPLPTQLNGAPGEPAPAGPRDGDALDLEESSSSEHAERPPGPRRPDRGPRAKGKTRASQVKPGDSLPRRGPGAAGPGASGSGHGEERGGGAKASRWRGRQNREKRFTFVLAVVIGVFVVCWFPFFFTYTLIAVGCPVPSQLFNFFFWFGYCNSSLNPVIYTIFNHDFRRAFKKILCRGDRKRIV
Description: The α2 -antagonism of these compounds was determined in vitro using the isolated, electrically stimulated mouse vas deferens preparation (Marshall et al., Br. J. Pharmac. 62, 147, 151, 1978). In this model, an α2 -agonist (detomidine) blocks electrically stimulated muscular contractions and the effect of the α2 -antagonist is seen by administering it prior to the agonist and by determining its pA2 value.
Compound mouse vas deferens

[2] = target: T2, α2-receptors of the central nervous system (Rattus norvegicus, UniProt P22909); experiment: central α2-blocking effect in vivo: reversal of detomidine-induced mydriasis in anaesthetized rat; details: iv, standard dose of detomidine i.v., then increasing i.v. doses of antagonist, read-out: ED50, dose producing a 50 percent reversal of detomidine-induced mydriasis
T2 construct: from tissue; host or cells: living anaesthetized rat, central nervous system
T2 sequence (P22909 1-465): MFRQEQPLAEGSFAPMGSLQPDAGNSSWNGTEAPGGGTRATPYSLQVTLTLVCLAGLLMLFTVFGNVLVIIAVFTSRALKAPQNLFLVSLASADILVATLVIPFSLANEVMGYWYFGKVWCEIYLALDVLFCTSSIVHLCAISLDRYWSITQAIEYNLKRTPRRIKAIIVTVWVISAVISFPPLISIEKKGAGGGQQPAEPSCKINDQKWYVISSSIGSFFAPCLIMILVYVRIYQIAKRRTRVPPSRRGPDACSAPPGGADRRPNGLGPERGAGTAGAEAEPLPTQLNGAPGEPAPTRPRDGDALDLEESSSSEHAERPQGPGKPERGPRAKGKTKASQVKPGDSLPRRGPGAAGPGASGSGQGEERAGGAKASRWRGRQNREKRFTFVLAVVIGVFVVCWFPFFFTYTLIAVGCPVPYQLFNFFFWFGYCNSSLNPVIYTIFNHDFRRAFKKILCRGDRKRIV
Description: The central α2 -blocking effect of the compounds of the invention in vivo was studied. It is known that in the rat α2 -agonists induce dilation of the pupil (mydriasis) and that this effect is transmitted via α2 -receptors of the central nervous system. In an anaesthetized rat, a standard dose of detomidine was administered intravenously. Thereafter increasing doses of the antagonist under test were injected intravenously and the reversal of detomidine-induced mydriasis was observed. The ED50 value of the antagonist, i.e. the dose producing a 50 percent reversal, was determined.

α2-receptors = details: Virtanen et al., 1983; cited from earlier work

Compound | Kb [1] [nM] | other results
CC(C)(O)C1(c2cnc[nH]2)Cc2ccccc2C1 [Compound I, 2-[2,3-dihydro-2-[imidazol-4(5)-yl]-1H-inden-2-yl]-2-propanol] | 3980 | 
C=C(C)C1(c2cnc[nH]2)Cc2ccccc2C1 [Compound II, 4(5)-(2,3-dihydro-2-isopropenyl-1H-inden-2-yl)imidazole] | 100 | 
C=C1c2ccccc2CC1(C)c1cnc[nH]1 (stereo not shown) [Compound V, 4(5)-(2,3-dihydro-2-methyl-1-methylene-1H-inden-2-yl)-imidazole] |  | ED50 [2]: 0.03 mg/kg
CC=C1c2ccccc2CC1(C)c1cnc[nH]1 (stereo not shown) [Compound VI, 4(5)-(2,3-dihydro-1-ethylidene-2-methyl-1H-inden-2-yl)-imidazole] |  | ED50 [2]: 0.001 mg/kg
Cc1cccc(Cc2c[nH]cn2)c1C [detomidine] |  | α2-receptor stimulation responsible for primary pharmacodynamic effects, e.g. sedation (in words) (α2-receptors): ability to stimulate α2 -receptors

More lines, main results first:

Kb [1] [nM] | Compound | other results
398 | CC(C)C1(c2cnc[nH]2)Cc2ccccc2C1 [Compound III, 4(5)-(2,3-dihydro-2-isopropyl-1H-inden-2-yl)imidazole] | 
25.1 | C=CC1(c2cnc[nH]2)Cc2ccccc2C1 [Compound IV, 4(5)-(2,3-dihydro-2-vinyl-1H-inden-2-yl)imidazole] | 
